Entries after “also recorded” stand apart in the source; their conditions may differ.
Columns and labels:
protease VapK [1] = test: Resistance of the protease VapK to surfactants (N-succinyl-ala-ala-pro-phe-p-nitroanilide substrate); format: biochemical, Vibrio metschnikovii KS1; conditions: for Relative Residual Activity (%): 25° C. for 25 minutes, relative to activity without surfactant
Method: In addition, the resistance of the protease VapK to various surfactants was tested. The enzyme sample was appropriately diluted in distilled water. The diluted solution was mixed with each surfactant in the same ratio. The mixture was reacted at 25° C. for 25 minutes. A substrate solution of 5 mM N-succinyl-ala-ala-pro-phe-p-nitroanilide in 1 M tris-HCl, pH 9.0 was added to the reaction mixture in the ratio of 1 to 10. The reaction mixture was reacted at 25° C. for 30 minutes. The optical density of the reaction mixture was measured at 410 nm to determine the enzymatic activity of the protease VapK.

protease VapK [2] = test: Effects of inhibitors on the activity of the protease VapK; format: biochemical, Vibrio metschnikovii KS1
Method: (§1) The activity of the alkaline protease was determined by the method of Yanagida et al with minor modifications. The reaction mixture was prepared by mixing 100 mM sodium carbonate solution with the supernatant formed after centrifuging the culture broth at 6,000 rpm for 15 minutes. 0.5 ml of the fermentation broth was mixed with 2.5 ml of 1% prewarmed casein solution in 100 mM sodium carbonate buffer (pH 10.5). The resulting mixture was incubated at 37° C. for 10 minutes. The reaction was terminated by adding a solution consisting 0.22 M trichloroacetic acid, 0.22 M sodium acetate and 0.22 M acetic acid. The reaction mixture was placed on ice for 10 minutes followed by centrifugation. 1 ml of the supernatant was mixed with 9 ml of distilled water. The optical density (O.D.) was measured at 280 nm. The result is indicated as unit. One unit of the enzyme is defined as the amount of protein which produces an increase of 0.1 absorbance unit under the assay conditions.

casein = test: Alkaline protease activity of culture broth (casein method of Yanagida et al, modified); format: biochemical
Method: as §1
E. coil HB101 harboring the plasmid pSB1 was cultured in an LB medium. The culture broth was recovered and subjected to electrophoresis. As a result (FIG. 8), the expressed protease VapK was detected at the 27 kDa band. In addition, the proteolytic activity of the enzyme was measured.

[3] = format: biochemical
From the text: It can be seen from the above results that the vapk gene contained in the recombinant plasmid pSB1 was expressed in E. coli HB 101 and the expressed protease VapK was secreted extracellularly. […] (FIG. 9).

[4] = inhibitor 1 mM, pre-reacted 20 minutes at 4° C.
[5] = inhibitor 1 mM, pre-reacted 20 minutes at 20° C.

Q: Which “Relative Residual Activity (%)” value (protease VapK [1]; surfactant 30000 ppm) does the source give for “Polyoxyethylene Alkylether [Polyoxyethylene Alkylether (EO = 15 mol)]” here?
A: Its value is greater than 100%.

Q: With `CCCCCCCCCCCCOS(=O)(=O)[O-].[Na+]` [SDS, sodium dodecyl sulfate] as the molecule, how does the “Relative Residual Activity (%)” value (protease VapK [1]; surfactant 1000 ppm) read?
A: The value was greater than 100%.

Q: What about the “Relative Residual Activity (%)” value (protease VapK [1]; surfactant 1500 ppm) of the same molecule?
A: Its value is less than 70%.

Q: Which “Relative Residual Activity (%)” value (protease VapK [1]; surfactant 10000 ppm) does the source give for Sodium-α-olefin sulfonate [AOS] here?
A: Its value is greater than 100%.

Q: What about the “Relative Residual Activity (%)” value (protease VapK [1]; surfactant 15000 ppm) of the same molecule?
A: Its value is greater than 70%.

Q: Which results are given for `O=C(O)CN(CCOCCOCCN(CC(=O)O)CC(=O)O)CC(=O)O` [EGTA, ethyleneglycol-bis(β-aminoethyl ether)N,N,N′,N′-tetraacetic acid]?
A: Relative Activity (%) (protease VapK [2]; [4]): 100%; Relative Activity (%) (protease VapK [2]; [5]): 100%

Q: With `O=S(=O)(F)Cc1ccccc1` [PMSF, phenylmethanesulfonyl fluoride] as the molecule, how does the “inhibition of the enzymatic activity of the protease VapK (in words)” value (protease VapK [2]) read?
A: Its value is “inhibited”.

Q: What about the “Relative Activity (%)” value (protease VapK [2]; [4]) of the same molecule?
A: Its value is 6%.

Q: And the “Relative Activity (%)” value (protease VapK [2]; [5])?
A: Its value is 13%.

Q: Which results are given for `O=C(O)CN(CCN(CC(=O)O)CC(=O)O)CC(=O)O` [EDTA, ethylenediamine tetraacetic acid]?
A: Relative Activity (%) (protease VapK [2]; inhibitor 100 mM, pre-reacted 20 minutes at 4° C.): 86%; Relative Activity (%) (protease VapK [2]; inhibitor 100 mM, pre-reacted 20 minutes at 20° C.): 100%

Q: With `N[C@@H](CS)C(=O)O` [L-cysteine] as the molecule, how does the “Relative Activity (%)” value (protease VapK [2]; [4]) read?
A: Its value is 99%.

Q: What about the “Relative Activity (%)” value (protease VapK [2]; [5]) of the same molecule?
A: Its value is 100%.

B1: VapK: alkaline serine protease of 27 kDa produced by Vibrio metschnikovii KS1, amino acid sequence SEQ ID NO. 1 (protein, listed as Vibrio metschnikovii)
chain: MFKKNVNRTVLAGLLLPTSISLAIASQLKDQEVPSFTPSVAVENHQTEQRYFVTYVPGATSGPMRMSQNGLTETDFSLQKAADILSTQQVTVINHLESLHTSVVRVTPTQAKQLLDNADVAMIEVDPIRYLFDAEIEPYAQQTPYGIRMVQADQLSDVYAANRKVCVIDSGYLRNHVDLPSAGVTGSTFSGHGSWFTDGNGHGTHVAGTIVALDNNVGVVGVLPSGLVGLHNVKIFNDSGVWTRASDLIQAIQSCQSAGSHVVNMSLGGSQGSVTEQKPMRNFYQQGMLLVAAAGNSGNSGFSYPASYDAVVSVAAVNSSGNVANFSQFNSQVELSAPGVGVLSTGNNGGYLSYSGTSMASPHVAGVAALVWSHFPQCRPERIRQSLSQTALDRGAAGRDNFYGWGIVQARRAYNWLSRNGC
Q: Which “Activity (proteolytic activity of expressed Vap K)” value (casein; Strain E. coli HB 101 harboring plasmid pSB1, LB medium culture broth) does the source give for B1 here?
A: Its value is 30.3 unit/ml.

Q: And the “Activity (proteolytic activity of expressed Vap K)” value (casein; Strain Vibrio metschnikovii KS1, culture broth)?
A: The value was 956.2 unit/ml.

Q: What about the “resistance / stability to surfactants (in words)” value (protease VapK [1]; surfactants such as LAS, SDS, AOS, polyoxyethylene alkylether) of the same molecule?
A: The value was “very resistant; also recorded: high resistance; also recorded: very stable”.

Q: What about the “influence of temperature on stability” value [3] of the same molecule?
A: The value was “influenced slightly”.

Q: And the “pH of optimum activity” value [3]?
A: Its value is 10.5.

Q: And the “stability over pH” value [3]?
A: The value was “stability in the entire pH range”.

Q: What about the “temperature of optimum activity” value [3] of the same molecule?
A: The value was 50 °C.
